In test [1] the target is T1, Full length human recombinant HDAC6 (Homo sapiens, UniProt Q9UBN7).
T1 construct: Full length human recombinant HDAC6 and HDAC11 proteins were expressed in baculoviral system
T1 sequence (Q9UBN7 1-1215): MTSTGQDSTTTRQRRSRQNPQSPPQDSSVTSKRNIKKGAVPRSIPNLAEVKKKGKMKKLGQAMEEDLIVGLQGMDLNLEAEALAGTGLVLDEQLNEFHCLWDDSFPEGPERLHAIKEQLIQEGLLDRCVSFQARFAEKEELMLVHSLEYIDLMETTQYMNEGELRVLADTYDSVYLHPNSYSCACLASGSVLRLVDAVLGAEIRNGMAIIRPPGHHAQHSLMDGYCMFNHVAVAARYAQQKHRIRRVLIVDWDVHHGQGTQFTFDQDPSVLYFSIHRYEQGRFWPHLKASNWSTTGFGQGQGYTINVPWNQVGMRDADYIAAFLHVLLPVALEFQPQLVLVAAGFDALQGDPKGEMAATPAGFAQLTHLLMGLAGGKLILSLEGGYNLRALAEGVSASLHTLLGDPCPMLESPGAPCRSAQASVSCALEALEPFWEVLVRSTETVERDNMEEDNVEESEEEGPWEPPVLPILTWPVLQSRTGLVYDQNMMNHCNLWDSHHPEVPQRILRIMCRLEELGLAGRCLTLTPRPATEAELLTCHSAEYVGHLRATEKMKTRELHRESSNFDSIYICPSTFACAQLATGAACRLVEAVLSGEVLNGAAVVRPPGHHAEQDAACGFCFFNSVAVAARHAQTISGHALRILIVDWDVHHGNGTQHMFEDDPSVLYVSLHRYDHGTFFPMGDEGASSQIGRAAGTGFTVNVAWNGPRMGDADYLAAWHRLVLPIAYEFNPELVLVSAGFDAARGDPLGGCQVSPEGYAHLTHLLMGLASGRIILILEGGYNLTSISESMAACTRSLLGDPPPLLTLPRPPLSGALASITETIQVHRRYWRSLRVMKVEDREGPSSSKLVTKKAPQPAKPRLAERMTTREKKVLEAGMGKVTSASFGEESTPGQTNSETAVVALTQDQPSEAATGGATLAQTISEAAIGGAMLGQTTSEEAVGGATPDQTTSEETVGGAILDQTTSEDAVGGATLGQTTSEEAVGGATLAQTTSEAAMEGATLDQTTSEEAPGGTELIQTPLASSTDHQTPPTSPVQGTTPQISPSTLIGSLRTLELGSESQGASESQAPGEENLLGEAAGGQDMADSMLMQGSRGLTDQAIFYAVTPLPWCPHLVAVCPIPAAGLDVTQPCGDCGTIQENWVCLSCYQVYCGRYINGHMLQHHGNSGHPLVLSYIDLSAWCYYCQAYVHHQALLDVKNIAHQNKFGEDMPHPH
Description: In vitro histone deacetylase assay, enzymatic HDAC6 (electrophoretic mobility shift assay). Conditions: 1 nM HDAC6; 2 μM peptide substrate FAM-RHKK(Ac)—NH2; 25° C.; 12 concentrations; read-out: HDAC6 Activity Range (IC50). The format is biochemical. Here is the method:
(§1) The enzymatic HDAC6 and HDAC11 assays were performed using electrophoretic mobility shift assay. Full length human recombinant HDAC6 and HDAC11 proteins were expressed in baculoviral system and purified by affinity chromatography. The enzymatic reactions were assembled in 384 well plates in a total volume of 25 μL in a reaction buffer composing: 100 mM HEPES, pH 7.5, 25 mM KCl, 0.1% bovine serum albumin, 0.01% Triton X-100, 1% DMSO (from compounds) 2 μM of the fluorescently labeled peptide substrate and enzyme. The enzymes were added at a final concentration of 1 nM for HDAC6, and 10 nM for HDAC11. The peptide substrate FAM-RHKK(Ac)—NH2 was used for HDAC6, and FAM-RHKK(tri-fluor-Ac)—NH2 for HDAC11. The compounds were tested at 12 concentrations spaced by 3× dilution intervals. Negative control samples (0%-inhibition in the absence of inhibitor) and positive control samples (100%-inhibition) were assembled in replicates of four in each assay plate. The reactions were incubated at 25° C. and quenched by the addition of 45 μL of termination buffer (100 mM HEPES, pH 7.5, 0.01% Triton X-100, 0.05% SDS).
(§2) The terminated assay plates were analyzed on LabChip® 3000 microfluidic electrophoresis instrument (Perkin Elmer/Caliper Life Sciences). The fluorescence intensity of the electrophoretically separated de-acetylated product and substrate peptide was measured. Activity in each sample was determined as the product to sum ratio (PSR): P/(S+P), where P is the peak height of the product peptide and S is the peak height of the substrate peptide. Percent inhibition (Pinh) is determined using following equation:
(§3) Pinh=(PSR0%−PSRinh)/(PSR0%−PSR100%)*100, where PSRinh is the product sum ratio in the presence of inhibitor, PSR0% is the average product sum ration in the absence of inhibitor and PSR100% is the average product sum ratio in 100%-inhibition control samples. The IC50 values of inhibitors were determined by fitting the %-inhibition curves with 4 parameter dose-response model using XLfit 4 software.
(§4) As set forth in Table-26 and Table-27, below, IC5o values are defined as follows: IC50≦0.1 μM (+++); IC50>0.1 μM and ≦0.5 μM (++); IC50>0.5 μM (+).

The target of test [2] is T2, Full length human recombinant HDAC11 (Homo sapiens, UniProt Q96DB2).
T2 construct: Full length human recombinant HDAC6 and HDAC11 proteins were expressed in baculoviral system
T2 sequence (Q96DB2 1-347): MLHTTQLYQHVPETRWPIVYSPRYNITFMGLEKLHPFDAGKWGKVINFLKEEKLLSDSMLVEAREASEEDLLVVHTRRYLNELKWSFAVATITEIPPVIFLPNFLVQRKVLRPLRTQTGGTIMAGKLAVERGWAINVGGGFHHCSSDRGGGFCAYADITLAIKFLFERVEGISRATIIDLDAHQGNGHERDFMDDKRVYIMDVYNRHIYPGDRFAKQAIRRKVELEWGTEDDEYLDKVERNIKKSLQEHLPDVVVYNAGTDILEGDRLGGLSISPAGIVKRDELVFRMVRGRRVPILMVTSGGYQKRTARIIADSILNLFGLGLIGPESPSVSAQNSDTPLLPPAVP
The experiment in a line: In vitro histone deacetylase assay, enzymatic HDAC11 (electrophoretic mobility shift assay). The format is biochemical. The conditions noted are these: 10 nM HDAC11; 2 μM peptide substrate FAM-RHKK(tri-fluor-Ac)—NH2; 25° C.; 12 concentrations; read-out: HDAC11 Activity Range (IC50). Here is the method:
as §1, §2, §3, §4

Molecules are shown by their SMILES.

From patent US9637453B2, “3-spirocyclic-6-hydroxamic acid tetralins as HDAC inhibitors” (Forma Therapeutics, Inc., priority 2015, dated 2017) come the findings set out here.

In the case of `COc1ccc(C(=O)N2CCC3(CCc4ccc(C(=O)NO)cc4C3)C2)cc1` (stereo not shown) [Compound I-1, N-hydroxy-1′-(4-methoxybenzoyl)-3,4-dihydro-1H-spiro[naphthalene-2,3′-pyrrolidine]-7-carboxamide], the IC50 was no more than 100 nM in test [1] and greater than 500 nM in test [2].
As to `COc1ccc(S(=O)(=O)N2CCC3(CCc4ccc(C(=O)NO)cc4C3)C2)cc1` (stereo not shown) [Compound I-2, N-hydroxy-1′-((4-methoxyphenyl)sulfonyl)-3,4-dihydro-1H-spiro[naphthalene-2,3′-pyrrolidine]-7-carboxamide], the IC50 in test [1] is no more than 100 nM; in test [2], greater than 500 nM.
On the same counts, the results for `COc1ccc(CN2CCC3(CCc4ccc(C(=O)NO)cc4C3)C2)cc1` (stereo not shown) [Compound I-3, N-hydroxy-1′-(4-methoxybenzyl)-3,4-dihydro-1H-spiro[naphthalene-2,3′-pyrrolidine]-7-carboxamide] are 100 to 500 nM and greater than 500 nM.
On the same counts, the results for `O=C(NO)c1ccc2c(c1)CC1(CC2)CCN(C(=O)C2CCCCC2)C1` (stereo not shown) [Compound I-4, 1′-(cyclohexanecarbonyl)-N-hydroxy-3,4-dihydro-1H-spiro[naphthalene-2,3′-pyrrolidine]-7-carboxamide] are no more than 100 nM and greater than 500 nM.
For `O=C(NO)c1ccc2c(c1)CC1(CC2)CCN(C2CCCCC2)C1` (stereo not shown) [Compound I-5, 1′-cyclohexyl-N-hydroxy-3,4-dihydro-1H-spiro[naphthalene-2,3′-pyrrolidine]-7-carboxamide] the same measures were no more than 100 nM and greater than 500 nM.
Turning to `O=C(NO)c1ccc2c(c1)CC1(CC2)CCN(C(=O)Nc2ccccc2)C1` (stereo not shown) [Compound I-6, N7-hydroxy-N1′-phenyl-3,4-dihydro-1H-spiro[naphthalene-2,3′-pyrrolidine]-1′,7-dicarboxamide], the IC50 in test [1] is no more than 100 nM; in test [2], 100 to 500 nM.
For `O=C(NO)c1ccc2c(c1)CC1(CC2)CCN(S(=O)(=O)C2CCCCC2)C1` (stereo not shown) [Compound I-7, 1′-(cyclohexylsulfonyl)-N-hydroxy-3,4-dihydro-1H-spiro[naphthalene-2,3′-pyrrolidine]-7-carboxamide] the same measures were no more than 100 nM and greater than 500 nM.
For the compound `O=C(NO)c1ccc2c(c1)CC1(CCNC1)CC2` (stereo not shown) [Compound I-8, N-hydroxy-3,4-dihydro-1H-spiro[naphthalene-2,3′-pyrrolidine]-7-carboxamide], the 50% inhibitory concentration (IC50) was 100 to 500 nM in test [1] and greater than 500 nM in test [2].
Consider `CN1CCC2(CCc3ccc(C(=O)NO)cc3C2)C1` (stereo not shown) [Compound I-9, N-hydroxy-1′-methyl-3,4-dihydro-1H-spiro[naphthalene-2,3′-pyrrolidine]-7-carboxamide], for which the IC50 was 100 to 500 nM in test [1] and greater than 500 nM in test [2].
Turning to `O=C(NO)c1ccc2c(c1)C[C@]1(CC2)CC(=O)N(C2CCC2)C1` [Compound I-150, (R)-1′-cyclobutyl-N-hydroxy-5′-oxo-3,4-dihydro-1H-spiro[naphthalene-2,3′-pyrrolidine]-7-carboxamide], the IC50 in test [1] was no more than 100 nM.
In the case of `O=C(NO)c1ccc2c(c1)C[C@@]1(CC2)CC(=O)N(C2CCC2)C1` [Compound I-151, (S)-1′-cyclobutyl-N-hydroxy-5′-oxo-3,4-dihydro-1H-spiro[naphthalene-2,3′-pyrrolidine]-7-carboxamide], the IC50 in test [1] was no more than 100 nM.
On the same count and under the same terms, to `O=C(NO)c1ccc2c(c1)C[C@]1(CC2)CC(=O)N(C2CCCC2)C1` [Compound I-152, (R)-1′-cyclopentyl-N-hydroxy-5′-oxo-3,4-dihydro-1H-spiro[naphthalene-2,3′-pyrrolidine]-7-carboxamide] belongs no more than 100 nM.
On the same count and under the same terms, the figure for `O=C(NO)c1ccc2c(c1)C[C@@]1(CC2)CC(=O)N(C2CCCC2)C1` [Compound I-153, (S)-1′-cyclopentyl-N-hydroxy-5′-oxo-3,4-dihydro-1H-spiro[naphthalene-2,3′-pyrrolidine]-7-carboxamide] is no more than 100 nM.
